The target in one series is T1, PKCε (Homo sapiens, UniProt Q02156).
T1 sequence (Q02156 1-737): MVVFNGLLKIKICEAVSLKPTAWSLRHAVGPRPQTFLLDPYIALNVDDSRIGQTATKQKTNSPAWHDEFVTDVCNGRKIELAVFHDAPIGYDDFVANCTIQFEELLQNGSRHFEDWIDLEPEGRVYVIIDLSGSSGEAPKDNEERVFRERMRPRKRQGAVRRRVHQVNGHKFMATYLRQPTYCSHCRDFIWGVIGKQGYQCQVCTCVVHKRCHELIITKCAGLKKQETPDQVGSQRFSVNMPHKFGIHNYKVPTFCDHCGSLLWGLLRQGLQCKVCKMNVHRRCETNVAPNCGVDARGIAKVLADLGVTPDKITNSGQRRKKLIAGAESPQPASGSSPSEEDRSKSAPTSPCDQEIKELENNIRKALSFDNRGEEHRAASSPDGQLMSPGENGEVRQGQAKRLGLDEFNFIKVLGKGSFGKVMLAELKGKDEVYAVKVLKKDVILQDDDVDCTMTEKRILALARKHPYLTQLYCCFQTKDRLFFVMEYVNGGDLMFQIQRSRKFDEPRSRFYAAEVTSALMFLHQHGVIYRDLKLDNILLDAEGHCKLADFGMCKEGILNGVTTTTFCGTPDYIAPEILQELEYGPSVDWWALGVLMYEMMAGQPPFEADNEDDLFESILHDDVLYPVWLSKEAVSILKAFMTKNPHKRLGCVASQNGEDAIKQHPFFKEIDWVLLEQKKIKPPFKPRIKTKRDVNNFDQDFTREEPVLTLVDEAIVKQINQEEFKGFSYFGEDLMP
The series is described as follows: PKCε activity with increasing ATP and CP612 (ATP competition). The series is classed as biochemical. Also noted: His; AVI; made in house; host or cells: Sf9 cells. Particulars: without CP612; 95% CI 2.23–7.61 μM. Here is the method:
Therefore, we assayed PKCε activity with increasing concentrations of ATP and in the presence of increasing concentrations of CP612.
Kinase assays. CP612 was assayed against His-AVI–tagged human PKCε (1 nM) produced in Sf9 cells, and ROCK1 (Carna Biosciences; 5 nM) using the Lance-FRET kinase assay system (PerkinElmer Revvity). Other human recombinant PKCs (SignalChem Biotech) were assayed in triplicate at the following concentrations: PKCβII 1.6 nM, PKCγ 500 pM, PKCδ 5 nM, PKCθ 500 pM, and PKCζ 500 pM. PKCs were incubated in a 15 μL reaction volume with kinase buffer (20 mM Tris-HCL [pH 7.4], 10 mM MgCl2, 0.25 mM EGTA, 0.1 mg/mL BSA, and 0.15% Triton X-100), 50 nM ULight-labeled CREBtide […] (PerkinElmer, TRF0107, Revvity), and test compound. […] after 60 minutes with 10 μL of 2.5× Stop Solution/Detection Mix containing 20 mM EDTA and 4 nM LANCE Ultra Europium anti–phospho-[…] peptide antibody (PerkinElmer, TRF0200, Revvity). After incubation at 27°C for another 60 minutes, phosphorylation was detected using a FlexStation 3 Microplate Reader (Molecular Devices) in LANCE TR-FRET mode (excitation = 340 nm, emission = 665 nm) and expressed as relative fluorescence units (RFU). The percentage of inhibition was calculated as: (signal without test compound − signal with test compound)/(signal without test compound − signal without ATP) × 100. The Z’ factor for this assay ranged between 0.72 and 0.86.

Series [1] can be described thus: Plasma protein binding, equilibrium dialysis (RED). Type of series: in vitro ADME, human. Particulars: for % Recovery / recovery at 4 h, 10 µM: PBS + Plasma relative to starting concentration of 10 uM. Here is the method: Plasma protein binding. Binding of CP612 to human plasma proteins was measured by equilibrium dialysis using a Rapid Equilibrium Dialysis (RED) Device (Thermo Fisher Scientific). The device uses plates with wells preloaded with equilibrium dialysis membrane inserts, each of which includes 2 side-by-side chambers separated by a dialysis membrane. […] All compounds were tested in triplicate. […] A total of 200 μL of diluted test compound was then added to the plasma chambers of triplicate wells of a 48-sample RED plate (Thermo Fisher Scientific). In total, 400 μL of 0.1M PBS buffer were added to each buffer chamber. The plate was sealed with adhesive foil and incubated at 37°C with shaking for 4 hours, after which 30 μL were removed from each chamber and diluted with either 30 μL of plasma (for buffer chamber samples) or 30 μL of 0.1M PBS (for plasma chamber samples). Samples were extracted with 3 volumes of acetonitrile, centrifuged at 16,000g at 4°C for 10 minutes, and analyzed by LC-MS to calculate the amount of drug in each chamber. The percentage of free compound was calculated as the concentration in the buffer chamber/concentration in the plasma chamber × 100%. The percentage of protein-bound compound was calculated as 100% – the percentage of free compound.
In general terms: In equilibrium dialysis free small molecules cross a membrane that holds back macromolecules.

The nature of the next series: Plasma stability. Particulars: for % Absolute: human plasma (hPL); for half-life: human.
A short description of the next series: Microsomal clearance. Particulars: for half-life at 8.5 μM: both, human, microsomes; for % Absolute: human liver microsomes (HLM). As to the method:
Microsomal clearance. To determine if CP612 was a likely substrate for first-pass hepatic metabolism, we measured the stability of CP612 in the presence of human liver microsomes (BioIVT) pooled from over 100 male and female individuals. […] Test compounds were diluted to 10 μM in 0.1M PBS, and then 51 μL were dispensed in quadruplicate into wells of a 96-well plate, which was shaken at 600 rpm at 37°C. Reactions were initiated by adding 1.5 μL of microsomes (20 mg/mL) to the wells and 3 minutes later adding 7.5 μL of 8 mM NADPH (1 mM final concentration). Samples incubated without NADPH were used as negative controls.

The mark [2] stands for this setting: (Corrected concentration in PBS / Corrected concentration in Plasma) * 100, individual replicates.
[3] abbreviates: human, individual replicates, read-out: % Recovery.
The mark [4] stands for this setting: human, mean of replicates, read-out: % Recovery, Mean.
The mark [5] stands for this setting: time 0 min, individual replicates.
Where [6] appears, read: time 15 min, individual replicates.
Setting [7] is: time 30 min, individual replicates.
Setting [8] is: time 60 min, individual replicates.

As usually defined, the EC50 is the concentration needed to bring the measured effect to its halfway point. Low values mean higher potency in that assay, high ones lower potency in that assay. The half-life is the time needed for the level to fall by half in the phase considered.

Values joined by “and” are separate entries in the source; they are usually repeats but may differ in a detail not shown here. Identical values can stand only once. Like-named read-outs stand apart in the source and are kept apart here.

Method for Plasma stability: Plasma stability. To determine in vitro plasma stability, we calculated in vitro plasma half-life. We incubated test substances (0.6 μL) with 60 μL human plasma (BioIVT) in quadruplicate at 37°C.

At PKCε, `Nc1ncnc2c1ncn2[C@@H]1O[C@H](COP(=O)(O)OP(=O)(O)OP(=O)(O)O)[C@@H](O)[C@H]1O` [ATP] returned an EC50 of 4.2 µM.

For the compound `COCCc1ccc(OCC(O)CNC(C)C)cc1` (stereo not shown) [Metoprolol, metoprolol], in series [1] (setting [2]), the “% Free” value is 91.52%. Moreover, in series [1] (individual replicates), the “% Recovery” value is 70.00% and 78.51%; the “% Bound” value is 8.48% and 10.85%. Further, the recovery at 4 h, 10 µM in series [1] (setting [3]) came out at 66.7%. The recovery at 4 h, 10 µM in series [1] (setting [4]) was 71.8%.

As to `CCN(CC)CCOC(=O)c1ccc(N)cc1` [Procaine, reference compound], the “% Absolute” value in “Plasma stability” (setting [5]) was 122.69% and 106.84% and 107.17% and 113.76%; in the series “Plasma stability” (setting [6]), 0.17% and 0.32% and 0.18%; in the series “Plasma stability” (setting [7]), 0.00%; in “Plasma stability” (setting [8]), 0.00%; in “Plasma stability” (time 180 min, individual replicates), 0.00%. Also, in “Plasma stability” (human plasma, 37°C), the “Plasma stability Cl” value was 25.29 ± 1.35 µL/min. In the series “Plasma stability” (human plasma, individual replicates), the “Cl (clearance)” value is 26.280 and 23.303 and 25.557 and 26.005. Further, in the series “Plasma stability” (human plasma, individual replicates, time axis in min, in min), the “t1/2 (half life)” value is 1.785 and 1.627 and 1.599. In addition, the half-life turned out to be 1.65 ± 0.09 min in “Plasma stability” (human plasma, Plasma stability t½ (min), 37°C); 1.65 min in “Plasma stability” (plasma, t1/2 (half life), Mean, human plasma, mean of replicates, time axis in min); 1.58 min in “Plasma stability” (plasma, t1/2 (half life), human plasma, individual replicates, time axis in min).

Turning to `C[C@]12CC[C@H]3[C@@H](CCC4=CC(=O)CC[C@@]43C)[C@@H]1CC[C@@H]2O` [Testosterone], the “% Free” value in series [1] (setting [2]) is 6.33% and 6.14%. Further, the “% Recovery” value in series [1] (individual replicates) was 74.81% and 77.04%. Further, the “% Absolute (Sample_PBS)” value in series [1] (PBS compartment, relative to starting concentration of 10 uM, individual replicates) is 4.21% and 4.46% and 4.45%. In addition, the fraction unbound at 4 h, 10 μM in series [1] (human plasma, individual replicates, read-out: % Bound (converted)) is 0.0593; in series [1] (human, plasma, (Corrected concentration in PBS / Corrected concentration in Plasma) * 100, individual replicates, read-out: % Free) it was 0.0593; in series [1] (human, plasma, human plasma, 37°C, 4 hours, read-out: Plasma protein binding (% bound) (converted)), 0.0613; in series [1] (human, plasma, mean of replicates, read-out: % Bound, Mean (converted)) it was 0.0613; in series [1] (human, plasma, mean of replicates, read-out: % Free, Mean) it was 0.0613. Besides, the recovery at 4 h, 10 µM in series [1] (setting [3]) worked out at 75.2%; in series [1] (setting [4]), 75.7%. In addition, the “% Bound” value in series [1] (individual replicates) is 93.67% and 93.86%. In series [1] (plasma compartment, relative to starting concentration of 10 uM, individual replicates), the “% Absolute (Sample_Plasma)” value is 70.98% and 70.35% and 72.59%. For the same compound, the “t1/2 (half life)” value in “Microsomal clearance” (HLM, individual replicates, time axis in min) was 14.3079 and 11.3615 and 11.8498. Also, the half-life at 8.5 μM in “Microsomal clearance” (Microsomal clearance t½ (min), human liver microsomes, NADPH) is 12.7 ± 1.37 min; in “Microsomal clearance” (t1/2 (half life), HLM, individual replicates, time axis in min) it was 13.4 min; in the series “Microsomal clearance” (t1/2 (half life), Mean, HLM, mean of replicates, time axis in min) it was 12.7 min. The “% Absolute” value in the series “Microsomal clearance” (setting [5]) was 122.56% and 99.88% and 106.38% and 105.61%; in the series “Microsomal clearance” (time 5 min, individual replicates) it was 82.74% and 96.20% and 86.80% and 92.26%; in the series “Microsomal clearance” (setting [6]) it was 59.56% and 70.78%; in “Microsomal clearance” (setting [7]), 54.15% and 32.42% and 34.78% and 45.15%; in “Microsomal clearance” (time 60 min, -NADPH, individual replicates), 125.64% and 123.20% and 118.26% and 117.65%; in the series “Microsomal clearance” (setting [8]) it was 5.58% and 4.76% and 2.71% and 3.01%. In addition, in the series “Microsomal clearance” (human liver microsomes, NADPH), the “Microsomal clearance Cl” value was determined as 109.81 ± 11.69 µL/min.

These data come from paper PMC12016938, “A small molecule PKCε inhibitor reduces hyperalgesia induced by paclitaxel or opioid withdrawal” (JCI Insight, 2025).
